According to publication PMC12498190, “A Photocaged N‐Phosphonopiperidinone as a Selective Photo‐Cleavable DPP8/9 Inhibitor” (Chembiochem, 2025):
Read-outs that look alike come from different tables or passages of the source.

Tests used:
human DPP8 = biological target: T1, human DPP8 (Homo sapiens, UniProt Q6V1X1); experiment: Progress-curve kinetics of covalent DPP8 inhibition (kinact, KI); format: biochemical; conditions: dark
T1 construct: purchased Proteros Biostructures GmbH, Germany
From the text: As previously shown by us, 1 inhibits DPP8 and DPP9 via a covalent modification of the active site serine.^[ [31] ^] Therefore, we also measured the time dependence of this covalent modification of the target enzyme by recording progress curves for the inhibition of DPP8 and 9 and using them to calculate the corresponding binding affinity (KI), maximum enzyme inhibition rate (kinact) as well as the efficiency of covalent bond formation (kinact/KI) values for 5 after and without green light irradiation ( Figure S1 and Table S1, Supporting Information).
To calculate the reaction rate of covalent bond formation between DPP proteins and the inhibitor, kinact, KI, and kinact/KI were determined as previously described.^[ [49] ^, [50] ^] To this end, a dilution series of 5 was irradiated using a green LED lamp (λ = 520−530 nm; Eurolite, Germany) for 5 min and subsequently mixed with 250 µM GP‐AMC. The mixture was then added to 10 nM enzyme, and the resulting activity was measured for a maximum of 60 min at 30 °C. Fluorescence intensities were plotted against time and data were fitted to the following equation: [drawing 1] using Graph‐Pad Prism v10.4.1. The obtained pseudo first‐order rate constant was used to determine kinact and KI by fitting the plot of kobs against inhibitor concentration to the following equation: [drawing 2] . The efficiency of covalent bond formation (kinact/KI) was calculated by the ratio of kinact/KI. All measurements were performed in triplicate, and error bars represent standard errors of the fit.
Supplementary Figure 1. Kinetic analysis of DPP8 and DPP9 inhibition by compound 5. The pseudo-first order rate constant (kobs) was calculated from an exponential regression of progress curves and plotted against the concentration of compound 5. All measurement were performed in triplicate (n = 3 technical replicates), mean values are shown and error bars indicate the standard error of the mean (SEM). Inhibition assay was performed with DPP8 (A, B) and DPP9 (C, D) under ‘dark’ (A, C) and ‘light’ (B, D) conditions. […]

DPP9 = DPP9 (Homo sapiens, UniProt Q86TI2); experiment: DPP9 enzyme inhibition assay, AMC release from GP-AMC; format: biochemical; set-up: purchased Proteros Biostructures GmbH, Germany; conditions: for IC50: read-out: Apparent IC50
From the text: We then continued to investigate the biochemical properties of the photocaged compound 5 versus the photoreleased product resembling inhibitor 1. To this end, we performed biochemical enzyme inhibition assays with DPP8 and DPP9 before and after irradiation of 5. Resulting DPP8/9 inhibition was quantified by following the DPP8‐ or DPP9‐mediated proteolysis of the fluorophore 7‐amino‐4‐methylcoumarin (AMC) from the model substrate Gly‐Pro‐AMC (Figure 1C,D and Table 1 ). To induce photocleavage of 5, reaction mixtures were irradiated for 5 min with the same green LED lamp as before, followed by a pre‐incubation of 45 min with the photoreleased inhibitor prior to substrate addition.
Enzyme activity of human DPP4, DPP8, and DPP9 (Proteros Biostructures GmbH, Germany) was determined by measuring the initial velocity of AMC release from the fluorogenic substrate GP‐AMC (Sigma Aldrich, USA) using a Tecan Spark 10 M multimode microplate reader (Tecan Group Ltd., Switzerland) in activity buffer (20 mM HEPES/KOH pH 7.3, 110 mM potassium acetate, 2 mM magnesium acetate, 0.5 mM EGTA, 0.02% Tween 20, supplemented with 1 mM DTT) and a final volume of 20 μL for maximal 30 min at 30 °C. Prior to the activity measurement, 10 nM of the corresponding enzyme was incubated for 45 min at 30 °C and gentle shaking with the indicated compounds at concentrations ranging from 0 to 100 μM, followed by irradiation with a green LED lamp (λ = 520−530 nm; Eurolite, Germany) for 5 min. The corresponding compounds were dissolved in DMSO and diluted in activity buffer (final DMSO concentration: 1%). To the inhibitor–enzyme mixture, GP‐AMC was then added to a final concentration of 250 μM, and the activity measurement was started. The resulting enzyme activity was calculated from the slope (fluorescence release over time) and plotted against the concentrations of the inhibitor. Apparent IC50 values were calculated using Graph‐Pad Prism v10.4.1 using the equation: [Inhibitor] versus response‐Variable slope (four parameters). All measurements were performed in triplicate, and error bars represent standard errors of the fit.

T1 sequence (Q6V1X1 whole entry): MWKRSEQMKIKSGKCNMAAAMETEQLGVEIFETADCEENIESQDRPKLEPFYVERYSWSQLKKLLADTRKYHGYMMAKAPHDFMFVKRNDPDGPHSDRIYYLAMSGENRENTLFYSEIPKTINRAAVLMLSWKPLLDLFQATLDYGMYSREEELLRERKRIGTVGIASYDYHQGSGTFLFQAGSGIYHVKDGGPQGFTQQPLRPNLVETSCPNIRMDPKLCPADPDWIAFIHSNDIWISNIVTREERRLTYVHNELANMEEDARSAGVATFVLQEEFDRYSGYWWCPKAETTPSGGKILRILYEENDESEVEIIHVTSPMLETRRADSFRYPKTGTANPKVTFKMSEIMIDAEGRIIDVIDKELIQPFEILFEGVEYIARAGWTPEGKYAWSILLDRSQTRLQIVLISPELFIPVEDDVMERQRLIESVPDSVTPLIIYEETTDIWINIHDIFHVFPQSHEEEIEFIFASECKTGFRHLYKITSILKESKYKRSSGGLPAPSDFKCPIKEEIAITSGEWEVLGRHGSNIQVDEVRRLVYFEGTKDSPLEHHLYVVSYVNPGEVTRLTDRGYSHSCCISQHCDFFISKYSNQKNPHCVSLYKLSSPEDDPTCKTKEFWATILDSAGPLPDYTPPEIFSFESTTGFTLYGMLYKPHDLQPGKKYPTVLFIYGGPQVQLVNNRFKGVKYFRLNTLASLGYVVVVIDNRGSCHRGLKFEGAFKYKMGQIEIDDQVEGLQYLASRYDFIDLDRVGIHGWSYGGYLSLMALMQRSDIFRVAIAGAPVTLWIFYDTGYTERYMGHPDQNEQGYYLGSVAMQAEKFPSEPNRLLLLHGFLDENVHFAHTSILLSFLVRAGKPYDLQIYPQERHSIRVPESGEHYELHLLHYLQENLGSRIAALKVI
DPP9, sequence (Q86TI2 whole entry): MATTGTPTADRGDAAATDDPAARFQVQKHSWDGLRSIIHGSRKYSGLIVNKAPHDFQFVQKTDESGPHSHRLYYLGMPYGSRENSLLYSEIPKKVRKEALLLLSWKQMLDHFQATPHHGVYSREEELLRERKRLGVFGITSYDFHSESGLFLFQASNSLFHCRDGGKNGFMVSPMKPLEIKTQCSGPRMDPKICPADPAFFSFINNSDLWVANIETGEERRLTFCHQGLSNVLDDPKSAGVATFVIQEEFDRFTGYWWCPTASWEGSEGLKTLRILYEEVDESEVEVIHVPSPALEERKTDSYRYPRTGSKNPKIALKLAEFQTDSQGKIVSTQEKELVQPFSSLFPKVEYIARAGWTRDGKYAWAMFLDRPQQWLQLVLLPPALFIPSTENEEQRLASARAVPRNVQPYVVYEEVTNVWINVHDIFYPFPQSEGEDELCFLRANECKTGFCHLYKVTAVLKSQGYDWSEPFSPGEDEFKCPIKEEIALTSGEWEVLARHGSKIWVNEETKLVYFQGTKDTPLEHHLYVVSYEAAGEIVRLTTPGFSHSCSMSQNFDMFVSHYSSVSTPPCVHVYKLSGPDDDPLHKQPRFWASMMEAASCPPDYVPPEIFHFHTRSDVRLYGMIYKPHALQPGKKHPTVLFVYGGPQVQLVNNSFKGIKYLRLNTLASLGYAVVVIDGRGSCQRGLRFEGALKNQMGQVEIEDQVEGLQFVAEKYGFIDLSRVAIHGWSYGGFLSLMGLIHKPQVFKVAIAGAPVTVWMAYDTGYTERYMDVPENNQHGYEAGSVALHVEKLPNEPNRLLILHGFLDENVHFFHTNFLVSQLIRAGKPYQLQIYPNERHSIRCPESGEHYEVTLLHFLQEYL

Work on `CCCCCc1ccc(SCCP(=O)(OCC)N2CCC[C@H](NC(=O)OCC3=C4C(C)=CC(C)=[N+]4[B-](C)(C)n4c(C)cc(C)c43)C2=O)cc1` (some centres unmarked) [Compound 5] yielded a KI (inactivation) (human DPP8) of 8.94 µM, a kinact (human DPP8) of 0.002 s⁻¹ and a kinact/KI (human DPP8) of 223 M⁻¹ s⁻¹. The “Dark/light ratio of apparent IC50” value (DPP9) was 40, the “Increase in potency after green light-mediated photorelease” value (DPP9; apparent IC50 dark vs light) was roughly 40 fold and the IC50 (DPP9; dark (without green light irradiation), 45 min pre-incubation) was 24.7 µM. The IC50 (DPP9; light (5 min green LED, 520-530 nm), 45 min pre-incubation) was 0.621 ± 0.054 µM and the IC50 (DPP9; without irradiation) was 24.7 ± 6.8 µM.
